Experimental data reported in ChEMBL document CHEMBL1139424, “Design, synthesis, and acetylcholinesterase inhibitory activity of novel coumarin analogues” (Bioorg Med Chem, 2008).

Molecular target: Acetylcholinesterase (Electrophorus electricus, UniProt O42275)
Assay: Inhibition of Electrophorus electricus brain AChE by Ellman's method

Sequence of Acetylcholinesterase (O42275 whole entry): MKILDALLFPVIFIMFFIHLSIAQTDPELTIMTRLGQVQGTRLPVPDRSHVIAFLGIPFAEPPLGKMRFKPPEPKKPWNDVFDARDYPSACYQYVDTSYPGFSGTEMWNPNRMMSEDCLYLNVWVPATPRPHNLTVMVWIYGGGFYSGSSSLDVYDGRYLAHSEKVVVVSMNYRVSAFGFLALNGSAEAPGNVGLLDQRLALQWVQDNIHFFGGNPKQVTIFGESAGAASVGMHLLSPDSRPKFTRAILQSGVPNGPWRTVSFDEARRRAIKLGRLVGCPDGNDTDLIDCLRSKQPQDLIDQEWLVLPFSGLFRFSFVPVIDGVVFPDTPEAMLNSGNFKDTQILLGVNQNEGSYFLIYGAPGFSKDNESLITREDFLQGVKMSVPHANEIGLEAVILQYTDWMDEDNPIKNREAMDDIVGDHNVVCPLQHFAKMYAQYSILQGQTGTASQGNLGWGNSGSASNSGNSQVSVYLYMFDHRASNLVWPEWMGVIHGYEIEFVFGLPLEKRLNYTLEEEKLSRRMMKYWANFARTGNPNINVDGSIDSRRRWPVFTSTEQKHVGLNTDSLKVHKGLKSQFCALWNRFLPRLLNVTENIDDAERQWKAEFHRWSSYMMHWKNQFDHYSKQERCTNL

Cc1ccc2oc(=O)cc(N3CCOCC3)c2c1
IC50: 875 µM

O=C(c1cc2ccccc2oc1=O)N1CCOCC1
IC50: 101 µM

COc1ccc(N2CCN(C(=O)c3cc4ccccc4oc3=O)CC2)cc1
IC50: 7.5 µM

COc1ccccc1N1CCN(C(=O)c2cc3ccccc3oc2=O)CC1
IC50: 11 µM

O=C(c1cc2ccccc2oc1=O)N1CCN(c2ccc(Cl)cc2)CC1
IC50: 98 µM

O=C(c1cc2ccccc2oc1=O)N1CCN(c2cc(Cl)ccc2Cl)CC1
IC50: 14 µM

O=C(c1ccccc1)N1CCN(C(=O)c2cc3ccccc3oc2=O)CC1
IC50: 15 µM

O=C(c1ccc(Cl)cc1)N1CCN(C(=O)c2cc3ccccc3oc2=O)CC1
IC50: 21 µM

COc1ccccc1N1CCN(c2cc(=O)oc3ccc(C)cc23)CC1
IC50: 249 µM

O=C(c1ccc([N+](=O)[O-])cc1)N1CCN(C(=O)c2cc3ccccc3oc2=O)CC1
IC50: 34 µM

Cc1ccc2oc(=O)cc(N3CCN(c4ccccc4)CC3)c2c1
IC50: 4.5 µM

Cc1ccc2oc(=O)cc(N3CCN(c4cc(Cl)ccc4Cl)CC3)c2c1
IC50: 827 µM

Cc1ccc(C(=O)N2CCN(c3cc(=O)oc4ccc(C)cc34)CC2)cc1
IC50: 5.3 µM

Cc1ccc2oc(=O)cc(N3CCN(C(=O)c4ccccc4)CC3)c2c1
IC50: 7.4 µM

Cc1ccc2oc(=O)cc(N3CCN(C(=O)c4ccc(Cl)cc4)CC3)c2c1
IC50: 16 µM

O=C(c1cc2ccccc2oc1=O)N1CCN(c2ccccc2)CC1
IC50: 9.3 µM

Cc1ccc2oc(=O)cc(N3CCN(C)CC3)c2c1
IC50: 901 µM

O=c1cc(Cl)c2cc(CN3CCN(c4ccccc4)CC3)ccc2o1
IC50: 19 µM

Cc1ccc(C(=O)N2CCN(C(=O)c3cc4ccccc4oc3=O)CC2)cc1
IC50: 18 µM

O=C(c1ccccc1Cl)N1CCN(C(=O)c2cc3ccccc3oc2=O)CC1
IC50: 26 µM

COc1ccc(N2CCN(c3cc(=O)oc4ccc(C)cc34)CC2)cc1
IC50: 18 µM

Cc1ccc(N2CCN(C(=O)c3cc4ccccc4oc3=O)CC2)cc1
IC50: 7.6 µM

Cc1ccccc1N1CCN(C(=O)c2cc3ccccc3oc2=O)CC1
IC50: 6.7 µM

Cc1ccc2oc(=O)cc(N3CCN(c4ccccc4C)CC3)c2c1
IC50: 7.9 µM

Cc1ccc2oc(=O)cc(N3CCN(c4ccc(Cl)cc4)CC3)c2c1
IC50: 808 µM

Cc1ccc2oc(=O)cc(N3CCN(C(=O)c4ccccc4Cl)CC3)c2c1
IC50: 21 µM

Cc1ccc(N2CCN(c3cc(=O)oc4ccc(C)cc34)CC2)cc1
IC50: 61 µM
